“Also recorded” adds a separate entry of the source.
How the values were obtained:
HDAC I/II [1] = test: HDAC-Glo I/II assay in HCT116 cells; type: cell-based, human; conditions: for HDAC-Glo: Efficacy, HCT116 / Efficacy, HDAC-Glo I/II HCT116 assay: maximal response
HDAC I/II [2] = test: HDAC-Glo I/II assay in human neural stem cells; type: cell-based; conditions: for HDAC-Glo: Efficacy, hNSC: maximal response; for inhibition of HDAC-Glo I/II luminescence signals: hNSCs, Figure 2
HCT116 cells = test: CellTiter-Glo cell viability assay in HCT116; type: cell-based, human; conditions: for IC50: Homo sapiens, HCT-116, 1 h, read-out: Viability: IC50, HCT116; for Viability: IC50, HCT116: cherry-pick confirmation, 1 hour
[3] = CellTiter-Glo cell viability assay in HCT116; type: cell-based, human; conditions: human, HCT116 cells
human neural stem cells = test: CellTiter-Glo cell viability assay in hNSC; type: cell-based; conditions: for IC50: Homo sapiens, Neural stem cell, 1 h, read-out: Viability: IC50, hNSC; for Viability: IC50, hNSC: cherry-pick confirmation, 1 hour
[4] = CellTiter-Glo cell viability assay in hNSC; type: cell-based, human; conditions: human, human neural stem cells (hNSC)
HDAC3 = HDAC3 (Homo sapiens, UniProt O15379); test: Fluorogenic isoform-specific HDAC assay, HDAC3; type: biochemical
HDAC4 = HDAC4 (Homo sapiens, UniProt P56524); test: Fluorogenic isoform-specific HDAC assay, HDAC4; type: biochemical
HDAC6 = biological target: T1, HDAC6 (Homo sapiens, UniProt Q9UBN7); test: Fluorogenic isoform-specific HDAC assay, HDAC6; type: biochemical
T1 sequence (Q9UBN7 1-1215): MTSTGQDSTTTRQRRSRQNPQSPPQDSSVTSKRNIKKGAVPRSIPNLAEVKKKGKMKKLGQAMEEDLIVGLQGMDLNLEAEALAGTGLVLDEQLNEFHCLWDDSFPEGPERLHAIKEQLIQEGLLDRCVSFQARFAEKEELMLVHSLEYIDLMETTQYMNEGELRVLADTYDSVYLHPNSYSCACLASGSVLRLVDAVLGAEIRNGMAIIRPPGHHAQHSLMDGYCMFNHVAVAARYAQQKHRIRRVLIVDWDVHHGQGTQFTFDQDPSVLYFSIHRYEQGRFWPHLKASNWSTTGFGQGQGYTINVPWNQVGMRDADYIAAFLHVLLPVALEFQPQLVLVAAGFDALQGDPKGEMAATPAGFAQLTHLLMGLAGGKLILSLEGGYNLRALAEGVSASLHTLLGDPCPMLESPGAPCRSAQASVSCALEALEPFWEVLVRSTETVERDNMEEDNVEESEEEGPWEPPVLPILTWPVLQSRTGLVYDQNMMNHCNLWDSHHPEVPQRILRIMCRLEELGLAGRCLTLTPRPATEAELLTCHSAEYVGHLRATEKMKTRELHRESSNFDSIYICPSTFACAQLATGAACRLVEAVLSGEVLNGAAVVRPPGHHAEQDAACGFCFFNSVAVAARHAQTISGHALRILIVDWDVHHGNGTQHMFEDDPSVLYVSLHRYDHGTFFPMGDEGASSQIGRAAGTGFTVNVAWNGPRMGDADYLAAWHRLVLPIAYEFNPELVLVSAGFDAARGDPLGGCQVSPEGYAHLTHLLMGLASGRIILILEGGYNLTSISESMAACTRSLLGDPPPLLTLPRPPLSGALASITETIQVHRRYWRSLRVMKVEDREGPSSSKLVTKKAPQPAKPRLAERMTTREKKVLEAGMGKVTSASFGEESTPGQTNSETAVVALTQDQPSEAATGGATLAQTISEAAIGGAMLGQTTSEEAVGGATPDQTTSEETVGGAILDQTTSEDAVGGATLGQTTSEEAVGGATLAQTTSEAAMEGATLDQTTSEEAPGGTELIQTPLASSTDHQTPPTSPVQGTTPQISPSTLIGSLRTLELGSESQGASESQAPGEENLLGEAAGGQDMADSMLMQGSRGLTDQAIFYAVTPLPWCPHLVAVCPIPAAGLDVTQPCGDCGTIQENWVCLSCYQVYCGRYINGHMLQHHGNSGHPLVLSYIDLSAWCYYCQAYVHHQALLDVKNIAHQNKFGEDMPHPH

HDAC9 = HDAC9 (Homo sapiens, UniProt Q9UKV0); test: Fluorogenic isoform-specific HDAC assay, HDAC9; type: biochemical
HDAC2 = HDAC2 (Homo sapiens, UniProt Q92769); test: Fluorogenic isoform-specific HDAC assay, HDAC2; type: biochemical
HDAC8 = biological target: T2, HDAC8 (Homo sapiens, UniProt Q9BY41); test: Fluorogenic isoform-specific HDAC assay, HDAC8; type: biochemical
T2 sequence (Q9BY41 1-377): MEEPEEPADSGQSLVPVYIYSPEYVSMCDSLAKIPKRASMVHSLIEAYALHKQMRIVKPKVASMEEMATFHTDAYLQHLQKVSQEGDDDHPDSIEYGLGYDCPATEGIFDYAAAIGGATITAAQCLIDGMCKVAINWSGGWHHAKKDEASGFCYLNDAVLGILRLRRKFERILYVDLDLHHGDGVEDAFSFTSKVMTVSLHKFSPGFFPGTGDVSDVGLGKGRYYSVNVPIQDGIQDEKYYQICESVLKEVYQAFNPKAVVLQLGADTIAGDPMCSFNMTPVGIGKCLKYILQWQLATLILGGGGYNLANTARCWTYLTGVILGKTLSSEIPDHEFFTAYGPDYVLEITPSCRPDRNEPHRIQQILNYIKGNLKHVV

HDAC1 = HDAC1 (Homo sapiens, UniProt Q13547); test: Fluorogenic isoform-specific HDAC assay, HDAC1; type: biochemical
HDAC5 = HDAC5 (Homo sapiens, UniProt Q9UQL6); test: Fluorogenic isoform-specific HDAC assay, HDAC5; type: biochemical
[5] = test system: class I and II HDAC enzymes; test: Panel of fluorogenic assays against ten class I and II HDAC isoforms; type: biochemical, human
HDAC7 = biological target: T3, HDAC7 (Homo sapiens, UniProt Q8WUI4); test: Fluorogenic isoform-specific HDAC assay, HDAC7; type: biochemical; conditions: Figure 4D, Suppl. Table S4
T3 sequence (Q8WUI4 1-952): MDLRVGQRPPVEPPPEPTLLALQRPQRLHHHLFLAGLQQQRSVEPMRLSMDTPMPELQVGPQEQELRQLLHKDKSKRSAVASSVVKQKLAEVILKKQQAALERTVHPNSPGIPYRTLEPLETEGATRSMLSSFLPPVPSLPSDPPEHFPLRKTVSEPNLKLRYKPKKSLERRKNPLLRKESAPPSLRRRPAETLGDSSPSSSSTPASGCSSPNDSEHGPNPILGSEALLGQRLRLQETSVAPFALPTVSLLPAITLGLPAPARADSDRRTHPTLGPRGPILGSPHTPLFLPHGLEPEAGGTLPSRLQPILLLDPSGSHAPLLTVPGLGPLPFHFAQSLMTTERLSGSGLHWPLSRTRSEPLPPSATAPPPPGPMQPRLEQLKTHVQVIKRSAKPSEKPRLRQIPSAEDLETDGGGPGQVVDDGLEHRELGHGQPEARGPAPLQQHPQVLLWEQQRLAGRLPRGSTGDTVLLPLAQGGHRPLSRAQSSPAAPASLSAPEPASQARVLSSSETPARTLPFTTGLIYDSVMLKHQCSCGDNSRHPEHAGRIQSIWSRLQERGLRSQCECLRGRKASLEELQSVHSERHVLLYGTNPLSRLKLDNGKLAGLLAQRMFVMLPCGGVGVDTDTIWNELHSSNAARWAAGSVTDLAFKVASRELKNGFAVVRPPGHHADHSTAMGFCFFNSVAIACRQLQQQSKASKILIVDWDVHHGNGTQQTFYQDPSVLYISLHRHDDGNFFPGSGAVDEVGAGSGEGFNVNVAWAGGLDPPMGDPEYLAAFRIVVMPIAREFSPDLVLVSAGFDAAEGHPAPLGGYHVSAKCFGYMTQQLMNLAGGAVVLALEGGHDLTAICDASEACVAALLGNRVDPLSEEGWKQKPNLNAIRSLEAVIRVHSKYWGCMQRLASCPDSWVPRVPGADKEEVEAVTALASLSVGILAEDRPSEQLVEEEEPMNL

HDAC I/II [6] = test: HDAC-Glo I/II assay in HEK293 cells; type: cell-based, human; conditions: read-out: average IC50, HDAC-Glo I/II activity; HEK293, assay optimization, Figure 1A
HDAC I/II [7] = test: HDAC-Glo I/II assay in HepG2 cells; type: cell-based, human; conditions: read-out: average IC50, HDAC-Glo I/II activity; HepG2, assay optimization, Figure 1A
HDAC I/II [8] = test: HDAC-Glo I/II assay in SU-DHL-6 cells; type: cell-based, human; conditions: read-out: average IC50, HDAC-Glo I/II activity; SU-DHL-6, assay optimization, Figure 1A
[9] = read-out: HDAC-Glo: IC50, HCT116, cherry-pick confirmation, 11 concentrations, 1 hour
[10] = read-out: HDAC-Glo: IC50, hNSC, cherry-pick confirmation, 11 concentrations, 1 hour
[11] = read-out: IC50, HDAC-Glo I/II HCT116 assay, powder confirmation

Sequence of HDAC3 (O15379 whole entry, canonical isoform): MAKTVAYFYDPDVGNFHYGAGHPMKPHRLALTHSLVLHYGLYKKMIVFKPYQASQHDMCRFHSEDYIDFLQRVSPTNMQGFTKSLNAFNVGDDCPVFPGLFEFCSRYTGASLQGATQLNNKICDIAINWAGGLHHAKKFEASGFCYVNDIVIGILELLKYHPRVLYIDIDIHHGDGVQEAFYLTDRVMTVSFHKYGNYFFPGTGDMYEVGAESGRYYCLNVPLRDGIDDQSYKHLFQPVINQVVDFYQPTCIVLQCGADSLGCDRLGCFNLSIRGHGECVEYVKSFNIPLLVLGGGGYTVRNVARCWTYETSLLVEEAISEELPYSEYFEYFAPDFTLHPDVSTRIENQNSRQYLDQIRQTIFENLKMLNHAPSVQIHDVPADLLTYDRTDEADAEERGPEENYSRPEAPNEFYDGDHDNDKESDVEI
Sequence of HDAC3 (Q9Y618 395-489 partner limits assumed): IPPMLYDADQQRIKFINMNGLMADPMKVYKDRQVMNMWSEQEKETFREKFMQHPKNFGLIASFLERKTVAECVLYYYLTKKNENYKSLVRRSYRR
Sequence of HDAC5 (Q9UQL6 whole entry, canonical isoform): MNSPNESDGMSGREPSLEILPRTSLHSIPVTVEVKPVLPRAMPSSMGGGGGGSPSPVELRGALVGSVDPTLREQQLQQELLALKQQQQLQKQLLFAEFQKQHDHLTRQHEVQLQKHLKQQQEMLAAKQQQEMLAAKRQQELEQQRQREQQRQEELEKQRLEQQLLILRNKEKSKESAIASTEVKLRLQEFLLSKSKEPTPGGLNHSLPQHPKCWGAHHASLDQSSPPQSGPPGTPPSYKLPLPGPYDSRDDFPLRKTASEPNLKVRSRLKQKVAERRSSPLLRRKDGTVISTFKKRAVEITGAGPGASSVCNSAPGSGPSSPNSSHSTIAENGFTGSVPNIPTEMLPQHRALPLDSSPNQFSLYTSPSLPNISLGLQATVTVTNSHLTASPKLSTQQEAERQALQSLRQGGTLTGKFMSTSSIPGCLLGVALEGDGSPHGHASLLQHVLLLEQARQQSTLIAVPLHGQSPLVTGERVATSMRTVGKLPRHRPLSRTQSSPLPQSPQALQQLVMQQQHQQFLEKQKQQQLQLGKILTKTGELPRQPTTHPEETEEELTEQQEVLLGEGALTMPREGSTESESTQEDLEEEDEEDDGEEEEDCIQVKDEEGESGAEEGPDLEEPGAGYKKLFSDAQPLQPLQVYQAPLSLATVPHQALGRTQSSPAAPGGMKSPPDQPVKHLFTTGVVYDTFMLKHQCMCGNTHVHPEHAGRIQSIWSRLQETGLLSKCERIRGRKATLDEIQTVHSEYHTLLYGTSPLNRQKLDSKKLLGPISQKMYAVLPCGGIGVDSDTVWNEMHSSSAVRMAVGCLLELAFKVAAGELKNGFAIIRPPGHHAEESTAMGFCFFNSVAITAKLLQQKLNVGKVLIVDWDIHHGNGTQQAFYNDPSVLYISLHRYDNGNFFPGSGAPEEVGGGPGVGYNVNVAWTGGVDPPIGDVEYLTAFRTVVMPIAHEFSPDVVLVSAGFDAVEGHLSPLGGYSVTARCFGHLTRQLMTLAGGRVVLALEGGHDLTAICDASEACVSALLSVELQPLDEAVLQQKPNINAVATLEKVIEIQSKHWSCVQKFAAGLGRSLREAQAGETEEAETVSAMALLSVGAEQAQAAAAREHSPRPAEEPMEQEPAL
Sequence of HDAC9 (Q9UKV0 whole entry, canonical isoform): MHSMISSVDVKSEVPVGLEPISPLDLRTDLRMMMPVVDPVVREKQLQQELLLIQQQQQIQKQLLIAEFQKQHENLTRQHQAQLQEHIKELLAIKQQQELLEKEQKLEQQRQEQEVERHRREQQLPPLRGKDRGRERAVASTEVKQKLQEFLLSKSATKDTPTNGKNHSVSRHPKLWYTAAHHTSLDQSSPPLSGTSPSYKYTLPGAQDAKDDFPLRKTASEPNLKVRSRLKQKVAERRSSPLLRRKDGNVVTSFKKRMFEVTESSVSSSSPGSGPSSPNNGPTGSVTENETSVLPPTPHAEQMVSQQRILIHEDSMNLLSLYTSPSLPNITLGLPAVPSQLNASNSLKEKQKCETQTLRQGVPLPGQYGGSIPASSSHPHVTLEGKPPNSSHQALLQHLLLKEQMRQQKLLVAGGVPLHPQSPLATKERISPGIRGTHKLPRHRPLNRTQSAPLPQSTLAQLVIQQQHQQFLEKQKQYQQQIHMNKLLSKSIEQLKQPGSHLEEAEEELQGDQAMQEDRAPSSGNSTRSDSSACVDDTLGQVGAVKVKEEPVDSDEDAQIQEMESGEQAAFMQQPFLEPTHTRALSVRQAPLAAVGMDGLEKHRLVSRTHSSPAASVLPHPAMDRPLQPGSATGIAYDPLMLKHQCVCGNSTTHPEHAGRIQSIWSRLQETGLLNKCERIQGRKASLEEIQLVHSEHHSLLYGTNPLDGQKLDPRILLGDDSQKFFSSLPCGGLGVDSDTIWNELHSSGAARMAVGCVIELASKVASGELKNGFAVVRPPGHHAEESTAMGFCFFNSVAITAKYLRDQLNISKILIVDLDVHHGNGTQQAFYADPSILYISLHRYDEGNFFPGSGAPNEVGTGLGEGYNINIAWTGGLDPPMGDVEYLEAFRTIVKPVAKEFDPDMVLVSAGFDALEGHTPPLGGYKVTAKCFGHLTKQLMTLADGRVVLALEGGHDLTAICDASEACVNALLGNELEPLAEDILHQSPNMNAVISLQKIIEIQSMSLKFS
Sequence of HDAC1 (Q13547 whole entry, canonical isoform): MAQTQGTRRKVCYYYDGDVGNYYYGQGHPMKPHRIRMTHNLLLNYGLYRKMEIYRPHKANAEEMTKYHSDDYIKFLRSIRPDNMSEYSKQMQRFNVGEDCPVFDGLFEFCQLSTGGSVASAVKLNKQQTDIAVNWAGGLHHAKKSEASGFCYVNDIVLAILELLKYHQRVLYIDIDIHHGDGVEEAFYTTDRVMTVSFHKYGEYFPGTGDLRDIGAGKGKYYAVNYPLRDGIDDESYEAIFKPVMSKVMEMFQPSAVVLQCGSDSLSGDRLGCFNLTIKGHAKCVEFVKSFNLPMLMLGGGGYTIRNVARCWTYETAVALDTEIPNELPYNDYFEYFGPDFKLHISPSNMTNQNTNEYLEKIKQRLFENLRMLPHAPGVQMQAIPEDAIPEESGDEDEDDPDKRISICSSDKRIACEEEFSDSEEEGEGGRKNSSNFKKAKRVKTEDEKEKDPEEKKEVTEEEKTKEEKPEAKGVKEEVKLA
Sequence of HDAC2 (Q92769 whole entry, canonical isoform): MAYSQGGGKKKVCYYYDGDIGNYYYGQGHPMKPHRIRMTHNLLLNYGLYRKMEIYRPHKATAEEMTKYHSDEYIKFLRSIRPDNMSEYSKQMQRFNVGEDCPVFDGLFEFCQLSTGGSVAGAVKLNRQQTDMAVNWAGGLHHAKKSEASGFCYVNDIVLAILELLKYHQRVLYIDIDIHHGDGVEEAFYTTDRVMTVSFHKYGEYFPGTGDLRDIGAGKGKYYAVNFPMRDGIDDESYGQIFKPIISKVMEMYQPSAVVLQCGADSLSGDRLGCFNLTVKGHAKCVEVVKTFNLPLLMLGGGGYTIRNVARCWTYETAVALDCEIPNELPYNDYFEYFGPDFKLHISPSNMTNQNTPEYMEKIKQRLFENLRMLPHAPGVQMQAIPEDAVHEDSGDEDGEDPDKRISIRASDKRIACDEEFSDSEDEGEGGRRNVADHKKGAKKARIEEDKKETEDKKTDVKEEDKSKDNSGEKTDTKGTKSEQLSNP
Sequence of HDAC4 (P56524 whole entry, canonical isoform): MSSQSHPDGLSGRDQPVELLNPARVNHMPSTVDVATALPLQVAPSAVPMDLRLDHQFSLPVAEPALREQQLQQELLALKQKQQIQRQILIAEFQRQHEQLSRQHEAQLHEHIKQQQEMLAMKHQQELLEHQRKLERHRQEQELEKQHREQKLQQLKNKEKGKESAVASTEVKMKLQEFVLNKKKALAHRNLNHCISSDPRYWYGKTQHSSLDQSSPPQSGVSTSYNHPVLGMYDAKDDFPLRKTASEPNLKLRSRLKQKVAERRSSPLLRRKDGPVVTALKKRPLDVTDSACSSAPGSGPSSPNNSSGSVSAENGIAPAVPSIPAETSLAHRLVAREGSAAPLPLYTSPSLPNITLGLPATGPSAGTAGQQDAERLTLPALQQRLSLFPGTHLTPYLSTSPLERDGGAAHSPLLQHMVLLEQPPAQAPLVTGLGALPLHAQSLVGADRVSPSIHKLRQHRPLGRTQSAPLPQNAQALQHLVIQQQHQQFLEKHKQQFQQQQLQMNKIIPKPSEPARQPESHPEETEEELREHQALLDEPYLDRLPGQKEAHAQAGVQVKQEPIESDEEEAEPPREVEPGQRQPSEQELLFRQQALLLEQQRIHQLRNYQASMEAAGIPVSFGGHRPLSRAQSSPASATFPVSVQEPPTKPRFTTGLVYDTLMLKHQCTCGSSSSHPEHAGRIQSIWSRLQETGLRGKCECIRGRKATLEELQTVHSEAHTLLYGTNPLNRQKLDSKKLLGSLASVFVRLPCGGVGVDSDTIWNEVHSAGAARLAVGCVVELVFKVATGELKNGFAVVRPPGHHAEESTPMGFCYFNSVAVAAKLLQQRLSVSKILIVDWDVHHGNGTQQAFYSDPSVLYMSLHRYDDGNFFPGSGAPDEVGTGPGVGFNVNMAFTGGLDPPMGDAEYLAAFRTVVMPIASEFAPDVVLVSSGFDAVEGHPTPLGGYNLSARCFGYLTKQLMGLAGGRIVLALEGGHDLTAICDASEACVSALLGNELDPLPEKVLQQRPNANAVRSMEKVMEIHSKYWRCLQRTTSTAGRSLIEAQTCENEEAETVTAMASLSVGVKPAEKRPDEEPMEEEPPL

IC50 (HDAC I/II [1]; [9]) [µM]	IC50 (HDAC I/II [2]; [10]) [µM]	IC50 (HCT116 cells) [µM]	IC50 (HDAC I/II [1]; [11]) [µM]	IC50 (HDAC6) [µM]	IC50 (HDAC9) [µM]	IC50 (HDAC2) [µM]	IC50 (HDAC8) [µM]	Viability: IC50, HCT116 (HCT116 cells)	IC50 (HDAC5) [µM]	IC50 (HDAC3) [µM]	SMILES	HDAC-Glo: Efficacy, HCT116 (HDAC I/II [1]; cherry-pick confirmation) [%]	HDAC-Glo: Efficacy, hNSC (HDAC I/II [2]; cherry-pick confirmation) [%]	viability at 1 h [3] [%]	IC50 (human neural stem cells) [µM]	viability at 1 h [4] [%]	Efficacy, HDAC-Glo I/II HCT116 assay (HDAC I/II [1]; powder confirmation) [%]	inhibition of HDAC-Glo I/II luminescence signals (HDAC I/II [2]; cherry-pick confirmation)	Viability: IC50, hNSC (human neural stem cells)	also measured
0.83	0.8 ± 0.05	14.4 ± 2.45									O=C(O)c1cccc(-c2noc(-c3ccccc3F)n2)c1 [Ataluren (PTC-124), Ataluren]	111 ± 4	109 ± 3	103	14.3 ± 0.93	86 ± 60.2				
1.11 ± 0.25	0.36 ± 0.14		0.12 ± 0.03	4.39	1.55	4.69	1.52	Inactive	1.33	4.04	N=C(N)c1ccc2cc(OC(=O)c3ccc(N=C(N)N)cc3)ccc2c1 [Nafamostat]	116 ± 3	108 ± 1				99 ± 0	completely inhibited	Inactive	IC50 (HDAC4): 1.49 µM; IC50 (HDAC1): 4.67 µM; isoform selectivity ([5]; red-shifted versions of fluorogenic assays, Figure 4A, 4B): more selective in inhibiting HDAC4, HDAC5, and HDAC8 than other HDAC isoforms
1.6 ± 0.1	1.05 ± 0.12	23.6 ± 12	1.35 ± 0.14								CC(=O)Oc1ccccc1C(=O)Nc1ncc([N+](=O)[O-])s1 [Nitazoxanide]	116 ± 1	104 ± 1	62	12.4 ± 4.65	40	99 ± 0			
5.9	4.18		10.3 ± 1.06	8.22	9.95	5.04	3.42	Inactive	0.89	23.3	Oc1cc(O)cc(/C=C/c2ccc(O)c(O)c2)c1 [Piceatannol]	105 ± 7	108 ± 4		19.5 ± 2.49	25	60 ± 4	completely inhibited		inhibition of HDAC activity, HDAC9 (HDAC9; Figure 4D, Suppl. Table S4): over 30%; inhibition of HDAC activity, HDAC1 (HDAC1; Figure 4C, Suppl. Table S4): over 30%; inhibition of HDAC activity, HDAC7 (HDAC7): over 30%; inhibition of HDAC activity, HDAC5 (HDAC5; Figure 4D, Suppl. Table S4): over 30%
0.07 ± 0.01	0.1 ± 0.02		0.11 ± 0.01					Inactive			CC(/C=C/C(=O)NO)=C\[C@@H](C)C(=O)c1ccc(N(C)C)cc1 [Trichostatin A]	119 ± 5	114 ± 6				99 ± 0		Inactive	IC50 (HDAC I/II [6]): 0.09 µM; IC50 (HDAC I/II [7]): 0.05 µM; IC50 (HDAC I/II [8]): 0.1 µM; HDAC I/II inhibitory activity (in words) (HDAC I/II [1]; HCT116 and HEK293 cells, validation with epigenetics libraries): greatly inhibited HDAC-Glo I/II activity; IC50 (HDAC I/II [1]; read-out: IC50, HDAC-Glo I/II, HCT116 cells, time course, one hour treatment): 0.05 ± 0.03 µM; IC50 (HDAC I/II [1]; read-out: average IC50, HDAC-Glo I/II activity, HCT116, assay optimization, Figure 1A): 0.25 µM; IC50 (HDAC I/II [2]; read-out: average IC50, HDAC-Glo I/II activity, hNSC, assay optimization, Figure 1A): 0.44 µM; inhibition against all class I and II HDAC enzymes ([5]; 20 μM): over 80%; inhibition of HDAC isoforms (in words) ([5]; 20 μM, Figure 3): inhibited activities of all isoforms

SMILES	IC50 (HDAC I/II [1]; [9]) [µM]	IC50 (HDAC I/II [2]; [10]) [µM]	IC50 (HCT116 cells) [µM]	IC50 (HDAC I/II [1]; [11]) [µM]	IC50 (HDAC6) [µM]	IC50 (HDAC9) [µM]	IC50 (HDAC2) [µM]	IC50 (HDAC8) [µM]	Viability: IC50, HCT116 (HCT116 cells)	IC50 (HDAC5) [µM]	IC50 (HDAC3) [µM]	HDAC-Glo: Efficacy, HCT116 (HDAC I/II [1]; cherry-pick confirmation) [%]	HDAC-Glo: Efficacy, hNSC (HDAC I/II [2]; cherry-pick confirmation) [%]	viability at 1 h [3] [%]	IC50 (human neural stem cells) [µM]	viability at 1 h [4] [%]	Efficacy, HDAC-Glo I/II HCT116 assay (HDAC I/II [1]; powder confirmation) [%]	inhibition of HDAC-Glo I/II luminescence signals (HDAC I/II [2]; cherry-pick confirmation)	Viability: IC50, hNSC (human neural stem cells)	also measured
O=S(=O)(O)c1ccc2[nH]c(-c3ccccc3)nc2c1 [Ensulizole]	6.13 ± 3.06	1.94 ± 0.97	13.4 ± 2.8	1.66 ± 0.73								116 ± 5	111 ± 1	70	16 ± 1.04	58	98 ± 0			inhibition of HDAC3 (in words) (HDAC3; 20 μM): selectively inhibited; also recorded: selective to HDAC3

— PMC4917448 (Journal of biomolecular screening, 2016)
